Results as given in US20230014907A1, “INHIBITORS OF APOL1 AND METHODS OF USING SAME” (Vertex Pharmaceuticals Incorporated, priority 2020, published 2023).

Columns and labels:
[1] = target: T1, G1 APOL1 (Homo sapiens, UniProt O14791, I384M/S342G); test: Acute APOL1 Thallium Assay with Inducible Stable Clones of HEK 293 Cells; type: cell-based; conditions: HEK 293 inducible stable clones, G1 APOL1; read-out: Thallium Assay (IC50)
T1 construct: expressed in transfected cells
T1 sequence (O14791 28-398 S342G/I384M): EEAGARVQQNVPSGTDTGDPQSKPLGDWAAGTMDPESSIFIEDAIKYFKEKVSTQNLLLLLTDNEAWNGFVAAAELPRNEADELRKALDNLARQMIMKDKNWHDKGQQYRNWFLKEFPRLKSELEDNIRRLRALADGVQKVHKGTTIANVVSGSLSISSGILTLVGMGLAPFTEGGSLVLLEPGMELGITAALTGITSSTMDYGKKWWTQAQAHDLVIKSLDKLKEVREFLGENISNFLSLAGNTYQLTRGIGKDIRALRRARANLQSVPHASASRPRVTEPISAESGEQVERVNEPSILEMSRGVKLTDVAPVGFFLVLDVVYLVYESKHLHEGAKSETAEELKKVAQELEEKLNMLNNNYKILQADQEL
Outline: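 Pore activity was read as the fluorescence increase from Tl+ entering cells loaded with an AM-ester thallium indicator dye. The cells were tetracycline-inducible HEK293 T-Rex expressing G1 APOL1 (clone DC3.25), induced when plated at 26000 per well and incubated at 37° C.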

[2] = target: T2, APOL1 G1 Protein (Homo sapiens, UniProt O14791, I384M/S342G); test: Trypanosoma brucei brucei Lysis Assay Using APOL1 Recombinant Protein (AlamarBlue viability); type: cell-based; conditions: read-out: Trypanosomal Assay (IC50)
T2 sequence (O14791 28-398 S342G/I384M): T1 sequence (O14791 28-398 S342G/I384M)
Excerpt: Trypanosoma brucei brucei is a blood stream parasite to which human, gorillas and baboon are immune due to the presence of the APOL1 protein in their HDL particles. The protein is uptaken by the parasite via the TbHpHb receptor located in its flagellar pocket and is bonded by the Hpr protein contained in the HDL particles which triggers the receptor endocytosis by the parasite.
Following endocytosis, the formed vesicle containing the HDL particle matures from early to late endosome, and subsequently to lysosome. The concomitant pH change in the lumen of the vesicle triggers the insertion of the APOL1 protein into the membrane of the late endosome/lysosome and hereby triggers lysosomal membrane permeabilization and as a further downstream event, trypanosome lysis. Trypanosoma brucei brucei is sensitive to lysis by all three APOL1 variants (G0, G1, and G2).
The Trypanosoma brucei brucei lysis assay is a lysis assay of the parasite using recombinant APOL1 protein variant followed by a fluorescent detection method of viability by the addition of AlamarBlue reagent to the assay well, a general metabolic redox indicator (AlamarBlue assay).
Briefly, the AlamarBlue active compound, the resazurin, a blue, water soluble, non-toxic and cell permeable molecule, which can be followed by absorbance, is reduced by various metabolic pathways into resorufin, a red compound which can be followed by either absorbance or fluorescence. The assay allows the calculation of the percent viability (percent of living Trypanosomes remaining in each well) at the end of a lysis relative to the untreated condition by interpolation of fluorescent values (FLU) on a standard curve with a known amount of seeded trypanosome/well.
Trypanosoma brucei brucei (ATCC, Cat. No. PRA-382) • Lister 427 VSG 221 bloodstream form.
Thaw/Expansion Media (ATCC Medium 2834 Modified HMI-9 Medium)
Assay Media (No Phenol Red/No FBS): Make on Day of Use
Hypoxanthine Stock (100×)-9 (10×)
Equipment • E1-Clip Tip pipette 12 channel adjustable 2-125 μL, Cat. No. 4672070BT • ThermoFisher MultiDrop 384, Cat. No. 5840300 • Multidrop • Agilent Bravo, Cat. No. G5409A • Bravo • SpectraMax M5
Trypanosoma brucei brucei Culture
Step 2, Day 4 • Centrifuge at 800×g for 5 minutes at room temperature. • Resuspend in 1 mL media. • Make a 1:25 fold dilution (10 μL/240 μL media). • Count on a hemocytometer (after adding parasites). • Let sit for 1-2 minutes for the parasites to settle. • Count should be approximately 100 viable motile parasites/16 grid or approximately 25×10^6 parasites/flask. • Passage the parasites by adding 1×10^6 parasites/T75 flask in 20 mL media. • Passage the parasites by adding 2.33×10^6 parasites/T175 flask in 46.6 mL media. • For every T75 flask should make enough for approximately 1.5×384 well assay plates. • For every T175 flask should make enough for approximately 3.8×384 well assay plates.
Step 3, Day 6 • Centrifuge at 800×g for 5 minutes. • Resuspend in 3 mL assay media (No phenol red, no FBS) per 75 starting flask. • Resuspend in 7 mL assay media (No phenol red, no FBS) per 175 flask • Make a 1:25 fold dilution. • Count by hemocytometer. • Every T75 flask set up should have approximately 75×10^6 parasites/flask (verify doubling time=8.7 hours±1 hour). • Every T175 flask set up should have approximately 175×10^6 parasites/flask (verify doubling time=8.7 hours±1 hour). • Require 46×10^6 parasites per 384 well plate (at 120,000 parasites per well). […]

Compound	IC50 [1] [nM]	IC50 [2] [nM]
O=C(CCc1c(-c2ccc(F)cc2)[nH]c2c(F)cc(F)cc12)N[C@H]1CC[C@H](O)C1 [Compound 135]	> 1000	> 1000
CC(CO)N(C)C(=O)CCc1c(-c2ccc(F)cc2)[nH]c2ccc(F)cc12 (stereo not shown) [Compound 51]	> 1000	> 1000
Cn1nccc1NC(=O)CCc1c(-c2ccc(F)cc2)[nH]c2c(F)cc(F)cc12 [Compound 144]	> 1000	> 1000
O=C(CCc1c(-c2ccc(F)cc2)[nH]c2c(F)cc(F)cc12)NC1CCCNC1=O (stereo not shown) [Compound 113]	> 1000	250 to 1000
CN(CCO)C(=O)CCc1c(-c2ccc(F)cc2)[nH]c2c(F)cc(F)cc12 [Compound 143]	> 1000	> 1000
O=C(CCc1c(-c2ccc(F)cc2)[nH]c2ccc(F)cc12)Nc1cn[nH]c1 [Compound 46]	> 1000	> 1000
NCC1CCCCN1C(=O)CCc1c(-c2ccc(F)cc2)[nH]c2ccc(F)cc12 (stereo not shown) [Compound 53]	> 1000	> 1000
CN(CC(N)=O)C(=O)CCc1c(-c2ccc(F)cc2)[nH]c2c(F)cc(F)cc12 [Compound 150]	> 1000	> 1000
CC1(C)COC(=O)C1NC(=O)CCc1c(-c2ccc(F)cc2)[nH]c2c(F)cc(F)cc12 (stereo not shown) [Compound 193]	> 1000	> 1000
O=C(CCc1c(-c2ccc(F)cc2)[nH]c2c(F)cc(F)cc12)NC1(CCO)CC1 [Compound 154]	> 1000	> 1000
O=C(CCc1c(-c2ccc(F)cc2)[nH]c2c(F)cc(F)cc12)Nc1nc(C(F)(F)F)co1 [Compound 171]	> 1000	> 1000
O=C(CCc1c(-c2ccc(F)cc2)[nH]c2ccc(F)cc12)NCC1COC1 [Compound 43]	> 1000	> 1000
O=C(CCc1c(-c2ccc(F)cc2)[nH]c2c(F)cc(F)cc12)NCc1cocn1 [Compound 155]	> 1000	> 1000
O=C(CCc1c(-c2ccc(F)cc2)[nH]c2c(F)cc(F)cc12)Nc1ccon1 [Compound 160]	> 1000	> 1000
CC(C)(C)OC(=O)N[C@H]1C[C@H](NC(=O)CCc2c(-c3ccc(F)cc3)[nH]c3ccc(F)cc23)C1 [Compound 57]	> 1000	> 1000
O=C(CCc1c(-c2ccc(F)cc2)[nH]c2ccc(F)cc12)N1CCC(F)C1 (stereo not shown) [Compound 55]	> 1000	> 1000

The next lines start with results.

IC50 [1] [nM]	Compound	IC50 [2] [nM]
> 1000	O=C(CCc1c(-c2ccc(F)cc2)[nH]c2ccc(F)cc12)N1CCC(O)C1 (stereo not shown) [Compound 42]	> 1000
> 1000	Cc1cccc(CNC(=O)CCc2c(-c3ccc(F)cc3)[nH]c3c(F)cc(F)cc23)n1 [Compound 183]	> 1000
> 1000	O=C(CCc1c(-c2ccc(F)cc2)[nH]c2ccc(F)cc12)N1CC(O)C1 [Compound 58]	> 1000
250 to 1000	C#CC(CO)CNC(=O)CCc1c(-c2ccc(F)cc2)[nH]c2c(F)cc(F)cc12 (stereo not shown) [Compound 118]	250 to 1000
< 250	O=C(CCc1c(-c2ccc(F)cc2)[nH]c2c(F)cc(F)cc12)NC1CCCC1=O (stereo not shown) [Compound 101]	< 250
250 to 1000	CNC(=O)C(C)NC(=O)CCc1c(-c2ccc(F)cc2)[nH]c2c(F)cc(F)cc12 (racemic) [Compound 100]	250 to 1000
< 250	OCCc1c(-c2ccc(F)cc2)[nH]c2c(F)cc(F)cc12 [Compound 433, 2-[5,7-difluoro-2-(4-fluorophenyl)-1H-indol-3-yl]ethanol]	< 250
250 to 1000	CC(=O)NCCSc1c(-c2ccc(F)cc2)[nH]c2ccccc12 [Compound 510, N-[2-[[2-(4-fluorophenyl)-1H-indol-3-yl]sulfanyl]ethyl]acetamide]	250 to 1000
< 250	CC(CO)NC(=O)CCc1c(-c2ccc(F)cc2)[nH]c2ccc(F)cc12 (racemic) [Compound 9]	< 250
250 to 1000	O=C(CCc1c(-c2ccc(F)cc2)[nH]c2ccc(F)cc12)NC1CC(F)(F)C1 [Compound 47]	> 1000
